Results reported in US20150045387A1, “Bi-Aromatic And Tri-Aromatic Compounds As NADPH Oxidase 2 (Nox2) Inhibitors” (The University of Surrey, priority 2011, published 2015).

Assays:
[1] = tested on: mouse microvascular endothelial cells (SVEC4-10 cells); experiment: MTT assay for cytotoxicity, SVEC4-10; format: cell-based; conditions: SVEC4-10, LMH001 5 and 10 μM, 24 h
Protocol: FIG. 8 is a graph showing no cytotoxicity of LMH001 on living mouse microvascular endothelial cells (SVEC4-10 cells) and human liver hepatocyte cells (HepG2 cells), assessed by means of an MTT assay. Cells were cultured with LMH001 (5 and 10 μM) for 24 h. MTT is a yellow tetrazolium reagent which can be converted by living cells to insoluble blue formazan crystal in the medium. The insoluble blue formazan crystals were then dissolved in DMSO and measured for absorbance at 570 nm by a plate reader. Higher absorbance corresponds to more living cells. Results are presented as mean±SD (n=3).
The mouse lymph node microvascular endothelial cell line (SVEC4-10) was from the American Type Culture Collection (CRL-2167) and grown in DMEM, containing 10% (v/v) heat inactivated foetal calf serum, 100 U/mL penicillin and […] streptomycin, in a humidified atmosphere at 37° C. with 5% CO2.
The potential cytotoxicity of LMH001 on cultured endothelial cells (SVEC4-10) and liver cells (HepG2) was assessed using the MIT assay as described previously (16). […] Absorbance was measured at 570 nm in an ELISA plate reader and the mean of 3 blank readings was subtracted from each corrected value.

[2] = tested on: human lung alveolar epithelial cancer cells (A549 cells); experiment: EGF-induced O2.- production in A549 cells, lucigenin-chemiluminescence; format: cell-based; conditions: LMH001 5 μM, 24 h
Protocol: A549 cells were seeded at equal number the day before experiments and then stimulated with or without […] (EGF, 10 ng/ml) for 24 h in the presence or absence of LMH001 (5 μM). Cells were then trypsinized and counted. Cell homogenates were used for measuring O2.^− production by lucigenin-chemiluminescence in the presence of NADPH (100 μM).
A549 is a human lung adenocarcinoma epithelial cell line. A549 cells were grown in DMEM, containing 10% (v/v) heat inactivated foetal calf serum, 100 U/mL penicillin and […] streptomycin, in a humidified atmosphere at 37° C. with 5% CO2.
O2^− production by different cell types was measured using lucigenin (5 μM)-chemiluminescence. A microplate luminometer (LumiStar, BMG) was used, which allows the examination of 96 samples at the same time with kinetic reading facilities. […] Dark-adapted lucigenin (5 μM) was added into the well through an auto-dispenser located in the dark chamber just before reading. The light emission was recorded over a 60 minute period and expressed as arbitrary MLU measured by the illuminometer. Each experiment was performed in triplicate and the mean of 3 blank readings was subtracted from each corrected value for each reading. […]

HL-60 cells = experiment: normal cell proliferation, MTS assay, HL-60; format: cell-based, human; conditions: HL-60, LMH001 up to 10 μM, 6, 12 and 24 h of culture
Protocol: A) SVEC4-10 cells and HepG2 cells were cultured in the presence or absence of LHM001 (0-10 μM) for 24 h and tested for cell proliferation using a MTS assay kit. B) HL-60 cells were cultured in the presence or absence of LMH001 (0-10 μM), and cell proliferation was examined at 6, 12 and 24 h of culture.
HL-60 is a human promyelocytic leukaemia cell line. The HL60 cells were grown in RPMI 1640 medium; containing 10% (v/v) heat inactivated foetal calf serum, 100 U/mL penicillin and […] streptomycin, in a humidified atmosphere at 37° C. with 5% CO2. HL60 cells were differentiated to the human neutrophils by culturing the cells in the culture medium in the presence of 1.25% v/v DMSO for 6 days before being used for the experiments.
The ex vivo proliferative capabilities of isolated BMSC or cultured cells were analyzed using the MTS proliferation assay. […] After 24 hours in culture medium containing LMH001 (0-10 μM), proliferation was assessed using the MTS (CellTiter 96 AQ; Promega, Madison, USA) assay according to the manufacturer's protocol. The absorbance at 490 nm was read using an ELISA plate reader (Perkin elmer), and the proliferation index calculated relative to the controls. The mean of 3 blank readings was subtracted from each corrected value.

## O=C(OCc1cccc(O)c1O)c1ccc(O)c(CO)c1 [LMH001, (2,3,-dihydroxyphenyl)methyl 4-hydroxy-3-(hydroxymethyl)benzoate]
[1]
  cytotoxicity, MTT absorbance at 570 nm: no significant difference
[2]; EGF 10 ng/ml
  EGF-induced O2.- production: inhibited completely
[2]; no EGF, compared to medium only
  A549 cell O2.- production, LMH001 alone: no significant effect
HL-60 cells
  normal cell proliferation under physiological condition: no significant effect
